Assay results: article PMC11801715, “Activating PKC-ε induces HIV expression with improved tolerability” (PLOS Pathogens, 2025)

Tests used:
HIV p24 = HIV p24 digital immunoassay in culture supernatants; assay type: cell-based, HIV-1; conditions: Human immunodeficiency virus 1, CD4+ T, read-out: p24 EC50
Procedure: The fully automated Quanterix HD-X analyzer for single molecule detection was utilized to measure HIV p24 levels in culture supernatants (stored frozen at –80°C until use). Upon thaw, Triton X-100 was added to a final concentration of 1% to culture supernatants, incubated for 1 hour at room temperature before analysis on the same day. An in-house standard using purified HIV p24 protein was utilized in place of the standard provided in the p24 Simoa kit (Quanterix, catalog 102215). Briefly, p24 protein purchased from Advanced Biotechnologies, catalog 14-101-050, was reconstituted to 200 ng/mL in complete RPMI and stored at –80 in smaller aliquots. Standard curve was made in a […] dilution series from 40000 to 1.8 fg/ml in complete RPMI with 1% Triton X-100. All other assay reagents and assay reaction conditions followed the manufacturer’s protocol. p24 concentration in experimental samples was calculated based on a p24 calibration curve with 4-parameter curve fitting.

[1] = system: plasma cytokines/chemokines; assay: Cytokine/chemokine analysis in plasma; assay type: in vivo, rhesus macaque; conditions: 4 hours post dose
Description: For plasma cytokine analysis (S1 Table), whole blood was collected into K2EDTA tubes from C-232A and vehicle dosed rhesus macaques (prebleed and various post-dose time points) and plasma was isolated and stored at −80^ºC. Cytokine/chemokine analysis in plasma samples was accomplished using a nonhuman primate-specific 37 Plex ProcartaPlex immunoassay system (Thermo Fisher Scientific) according to the manufacturer’s instructions. Samples were then read on a Luminex 200 (Luminex) platform and analyzed using Bio-plex Manager software (Bio-Rad).

PKC-θ = PKC-θ (Homo sapiens, UniProt Q04759); assay: Immunofluorescence of endogenous PKC in Jurkat cells; assay type: cell-based; conditions: 30 minutes
Chain of PKC-θ (Q04759 whole entry): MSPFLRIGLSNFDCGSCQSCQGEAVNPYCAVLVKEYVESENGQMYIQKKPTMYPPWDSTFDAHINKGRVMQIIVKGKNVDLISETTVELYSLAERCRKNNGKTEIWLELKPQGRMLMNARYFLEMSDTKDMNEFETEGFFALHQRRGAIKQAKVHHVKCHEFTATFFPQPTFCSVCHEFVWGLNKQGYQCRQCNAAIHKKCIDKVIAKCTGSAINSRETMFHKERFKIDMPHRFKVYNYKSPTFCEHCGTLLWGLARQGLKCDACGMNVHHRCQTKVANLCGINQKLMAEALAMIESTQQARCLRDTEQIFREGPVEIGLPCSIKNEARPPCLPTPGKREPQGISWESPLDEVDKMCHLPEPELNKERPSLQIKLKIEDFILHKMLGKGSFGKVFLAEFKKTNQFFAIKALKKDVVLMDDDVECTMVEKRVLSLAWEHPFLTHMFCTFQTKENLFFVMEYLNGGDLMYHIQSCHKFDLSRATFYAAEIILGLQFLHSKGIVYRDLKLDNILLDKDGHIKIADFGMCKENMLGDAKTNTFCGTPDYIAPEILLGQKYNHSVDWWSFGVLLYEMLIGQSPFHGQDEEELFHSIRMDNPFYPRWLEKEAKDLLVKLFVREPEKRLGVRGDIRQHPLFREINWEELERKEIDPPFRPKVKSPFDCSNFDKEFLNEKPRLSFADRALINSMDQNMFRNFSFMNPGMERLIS
Procedure: Cells were cultured in RPMI medium supplemented with 10% heat-inactivated FBS and penicillin-streptomycin. For treatment, cells were incubated in either DMSO or C-232A for 30 minutes at 37 °C. Cells were fixed in ice-cold methanol, washed, and blocked with 2% BSA for 60 minutes at RT. Blocked cells were stained with either a 5 μg/mL primary PKC-θ antibody (R&D Systems, catalog MAB4368) or a 1:100 primary PKC-α antibody (R&D Systems, catalog MAB5340SP) in PBS with 1% BSA at 22 °C for 90 minutes. Donkey anti-mouse IgG antibody conjugated with Alexa Fluor 647 (Thermo Fisher Scientific, catalog A-31571) at 2 μg/mL and goat anti-rat IgG H&L antibody conjugated with Alexa Fluor 488 (Abcam, catalog ab150157) were used as secondary antibodies, respectively, in PBS with 1% BSA at 22 °C for 60 minutes. After immunostaining, the cell suspension was mixed (1:1) with ProLong Gold antifade reagent containing DAPI (Life Technologies, catalog P36935) and 5 μL of the mix was applied onto a microscope slide, covered with a coverslip, and cured overnight in the dark at RT. Samples were imaged with a Leica SP8 confocal microscope. Image analysis was performed using ImageJ software.

PKC-γ = PKC-γ (Homo sapiens, UniProt P05129); assay: PKC isoform translocation in A549-tGFP cells; assay type: cell-based; design: host or cells: A549; conditions: 60 minutes
Procedure: (§1) Using these findings we embarked on new designs for DAG-lactones with additional substituents from the ester moiety in combination with a few olefin substituents. A description of this effort is reported elsewhere.
(§2) Cellular translocation of PKC isoforms upon activation was determined in 8 A549 cell lines, each expressing a single PKC isoform fused to tGFP (PhenoVista Biosciences). Cells were plated in 384-well plates (80 μL/well) at 10^5 cells/mL in RPMI with 10% FBS and rested overnight. PKC agonist(s) were serially diluted at 1:3 steps in DMSO and added to the cells. After 60 minutes in an incubator at 37 °C, 5% CO2, cells were stained with Hoechst-33342 and fixed with 2% paraformaldehyde for 30 minutes at 4 °C. Cells were then stained with wheat germ agglutinin conjugated to AlexaFluor647 (WGA-647) for 10 minutes at 4 °C, washed to remove excess dye and imaged with Cellomics Array Scan (Thermo Fisher) at room temperature (RT). Images were analyzed using Cellomics automated image analysis algorithm. Plasma membrane translocation was quantified using the ratio between the average fluorescence in the areas at the cell edge defined by WGA-647 and the cytoplasm region.

PKC-β2 = PKC-β2 (Homo sapiens, UniProt P05771); assay: PKC isoform translocation in A549-tGFP cells; assay type: cell-based; design: host or cells: A549; conditions: 60 minutes
Chain of PKC-β2 (P05771 1-673 isoform P05771-2): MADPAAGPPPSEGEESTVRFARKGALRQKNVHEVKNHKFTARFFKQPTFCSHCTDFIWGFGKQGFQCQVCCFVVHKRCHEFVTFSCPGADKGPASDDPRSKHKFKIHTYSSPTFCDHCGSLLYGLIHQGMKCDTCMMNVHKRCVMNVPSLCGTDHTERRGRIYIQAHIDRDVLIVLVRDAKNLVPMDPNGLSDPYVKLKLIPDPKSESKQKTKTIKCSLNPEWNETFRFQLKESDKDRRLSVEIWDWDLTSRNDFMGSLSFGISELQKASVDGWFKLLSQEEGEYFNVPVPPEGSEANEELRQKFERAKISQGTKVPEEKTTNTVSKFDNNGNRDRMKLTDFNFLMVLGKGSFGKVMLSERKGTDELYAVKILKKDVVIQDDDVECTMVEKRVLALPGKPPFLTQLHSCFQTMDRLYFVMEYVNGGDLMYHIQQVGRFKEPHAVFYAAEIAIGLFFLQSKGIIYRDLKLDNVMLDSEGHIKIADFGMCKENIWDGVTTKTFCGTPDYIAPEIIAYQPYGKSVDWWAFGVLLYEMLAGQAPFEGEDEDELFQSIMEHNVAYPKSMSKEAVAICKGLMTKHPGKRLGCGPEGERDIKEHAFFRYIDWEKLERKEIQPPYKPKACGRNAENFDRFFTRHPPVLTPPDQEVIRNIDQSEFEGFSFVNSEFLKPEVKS
Procedure: as §1, §2

PKC-β1 = PKC-β1 (Homo sapiens, UniProt P05771); assay: PKC isoform translocation in A549-tGFP cells; assay type: cell-based; design: host or cells: A549; conditions: 60 minutes
Chain of PKC-β1 (P05771 whole entry, canonical isoform): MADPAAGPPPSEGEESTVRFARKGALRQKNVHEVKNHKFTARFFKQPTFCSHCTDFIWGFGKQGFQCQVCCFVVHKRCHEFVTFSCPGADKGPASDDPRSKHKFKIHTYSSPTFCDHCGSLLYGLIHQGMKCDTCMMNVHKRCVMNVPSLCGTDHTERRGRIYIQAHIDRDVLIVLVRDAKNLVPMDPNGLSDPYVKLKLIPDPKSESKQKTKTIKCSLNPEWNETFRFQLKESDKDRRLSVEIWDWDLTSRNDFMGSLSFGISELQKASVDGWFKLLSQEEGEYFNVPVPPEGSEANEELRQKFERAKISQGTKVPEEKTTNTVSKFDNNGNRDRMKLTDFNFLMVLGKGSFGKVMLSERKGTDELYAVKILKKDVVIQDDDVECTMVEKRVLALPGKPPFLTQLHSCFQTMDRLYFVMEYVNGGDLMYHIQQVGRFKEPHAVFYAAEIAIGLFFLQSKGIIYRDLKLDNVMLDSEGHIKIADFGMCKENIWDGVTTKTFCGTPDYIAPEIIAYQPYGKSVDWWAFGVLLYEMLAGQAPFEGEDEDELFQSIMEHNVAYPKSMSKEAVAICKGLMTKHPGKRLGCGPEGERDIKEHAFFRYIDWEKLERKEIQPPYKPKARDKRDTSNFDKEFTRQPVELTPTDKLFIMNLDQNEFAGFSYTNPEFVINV
Procedure: as §1, §2

Compound `Cc1ccc(C#Cc2ccc(C(=O)OCC3(CO)Cc4c(-c5ccccc5)ccnc4O3)cc2)cc1` (centres unmarked) [C-233] has an EC50 (HIV p24) of 428 nM.
`Cc1ccc(C#Cc2ccc3oc(CC(C)(C)C(=O)OCC4(CO)CC(=CCC(CC(C)C)CC(C)C)C(=O)O4)cc3c2)cc1` (centres unmarked) [C-232A] gave an I-TAC in plasma ([1]; 0.03 mg/kg) of 88 pg/mL, an IFN-α in plasma ([1]; 0.03 mg/kg) of 90 pg/mL and an IFN-γ in plasma ([1]; 0.03 mg/kg) of 43 pg/mL. It also gave an IL-1RA in plasma ([1]; 0.03 mg/kg) of 169 pg/mL, an IL-1β in plasma ([1]; 0.03 mg/kg) of 45 pg/mL and an IL-6 in plasma ([1]; 0.03 mg/kg) of 43 pg/mL. It also gave an IL-8 in plasma ([1]; 0.03 mg/kg) of 275 pg/mL, an IL-10 in plasma ([1]; 0.03 mg/kg) of 42 pg/mL and an IL-18 in plasma ([1]; 0.03 mg/kg) of 114 pg/mL. The MCP-1 in plasma ([1]; 0.03 mg/kg) was 1900 pg/mL, the MIG in plasma ([1]; 0.03 mg/kg) was 55 pg/mL and the MIP-1α in plasma ([1]; 0.03 mg/kg) was 208 pg/mL. It also gave an MIP-1β in plasma ([1]; 0.03 mg/kg) of 131 pg/mL, a TNF-α in plasma ([1]; 0.03 mg/kg) of 56 pg/mL and a VEGF-A in plasma ([1]; 0.03 mg/kg) of 107 pg/mL. The I-TAC in plasma ([1]; 0.1 mg/kg) was 427 pg/mL, the IFN-α in plasma ([1]; 0.1 mg/kg) was 143 pg/mL and the IFN-γ in plasma ([1]; 0.1 mg/kg) was 75 pg/mL. For the same compound, the IL-1RA in plasma ([1]; 0.1 mg/kg) was 775 pg/mL, the IL-1β in plasma ([1]; 0.1 mg/kg) was 70 pg/mL and the IL-6 in plasma ([1]; 0.1 mg/kg) was 126 pg/mL. For the same compound, the IL-8 in plasma ([1]; 0.1 mg/kg) was 2531 pg/mL, the IL-10 in plasma ([1]; 0.1 mg/kg) was 80 pg/mL and the IL-18 in plasma ([1]; 0.1 mg/kg) was 193 pg/mL. For the same compound, the MCP-1 in plasma ([1]; 0.1 mg/kg) was 3250 pg/mL, the MIG in plasma ([1]; 0.1 mg/kg) was 64 pg/mL and the MIP-1α in plasma ([1]; 0.1 mg/kg) was 160 pg/mL. It also gave an MIP-1β in plasma ([1]; 0.1 mg/kg) of 428 pg/mL, a TNF-α in plasma ([1]; 0.1 mg/kg) of 39 pg/mL and a VEGF-A in plasma ([1]; 0.1 mg/kg) of 161 pg/mL. It also gave an I-TAC in plasma ([1]; 0.3 mg/kg) of 365 pg/mL, an IFN-α in plasma ([1]; 0.3 mg/kg) of 112 pg/mL and an IFN-γ in plasma ([1]; 0.3 mg/kg) of 53 pg/mL. For the same compound, the IL-1RA in plasma ([1]; 0.3 mg/kg) was 2265 pg/mL, the IL-1β in plasma ([1]; 0.3 mg/kg) was 59 pg/mL and the IL-6 in plasma ([1]; 0.3 mg/kg) was 76 pg/mL. It also gave an IL-8 in plasma ([1]; 0.3 mg/kg) of 375 pg/mL, an IL-10 in plasma ([1]; 0.3 mg/kg) of 54 pg/mL and an IL-18 in plasma ([1]; 0.3 mg/kg) of 145 pg/mL. For the same compound, the MCP-1 in plasma ([1]; 0.3 mg/kg) was 6117 pg/mL, the MIG in plasma ([1]; 0.3 mg/kg) was 55 pg/mL and the MIP-1α in plasma ([1]; 0.3 mg/kg) was 187 pg/mL. For the same compound, the MIP-1β in plasma ([1]; 0.3 mg/kg) was 707 pg/mL, the TNF-α in plasma ([1]; 0.3 mg/kg) was 19 pg/mL and the VEGF-A in plasma ([1]; 0.3 mg/kg) was 81 pg/mL. The I-TAC in plasma ([1]; 1 mg/kg) was 5602 pg/mL, the IFN-α in plasma ([1]; 1 mg/kg) was 187 pg/mL and the IFN-γ in plasma ([1]; 1 mg/kg) was 200 pg/mL. For the same compound, the IL-1RA in plasma ([1]; 1 mg/kg) was 4471 pg/mL, the IL-1β in plasma ([1]; 1 mg/kg) was 343 pg/mL and the IL-6 in plasma ([1]; 1 mg/kg) was 3872 pg/mL. For the same compound, the IL-8 in plasma ([1]; 1 mg/kg) was 6153 pg/mL, the IL-10 in plasma ([1]; 1 mg/kg) was 82 pg/mL and the IL-18 in plasma ([1]; 1 mg/kg) was 351 pg/mL. For the same compound, the MCP-1 in plasma ([1]; 1 mg/kg) was 13,620 pg/mL, the MIG in plasma ([1]; 1 mg/kg) was 658 pg/mL and the MIP-1α in plasma ([1]; 1 mg/kg) was 1111 pg/mL. The MIP-1β in plasma ([1]; 1 mg/kg) was 3913 pg/mL, the TNF-α in plasma ([1]; 1 mg/kg) was 28 pg/mL and the VEGF-A in plasma ([1]; 1 mg/kg) was 330 pg/mL. For the same compound, the “translocation of endogenous PKC-θ from cytoplasm to cell edge” value (PKC-θ) was “efficient translocation of endogenous PKC-θ to the plasmalemma”, the EC50 (PKC-γ) was 11.5 µM and the EC50 (PKC-β2) was 2260 nM. It also gave an EC50 (PKC-β1) of 3.28 µM.
